Molecular target: human P2X3 receptor (Homo sapiens (Human), UniProt P56373)
Experiment: Evaluation of human P2X3 receptor inhibitory activity (Fluo-3 calcium fluorescence, FDSS 3000, ATP stimulation);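 also: stimulus was 50 nM ATP with fluorescence followed for 3 min, and the response per well was peak post-ATP fluorescence divided by the reading at measurement start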
Format: cell-based
Details: C6BU-1 cells stably expressing human P2X3 receptor

Sequence of human P2X3 receptor (P56373 whole entry): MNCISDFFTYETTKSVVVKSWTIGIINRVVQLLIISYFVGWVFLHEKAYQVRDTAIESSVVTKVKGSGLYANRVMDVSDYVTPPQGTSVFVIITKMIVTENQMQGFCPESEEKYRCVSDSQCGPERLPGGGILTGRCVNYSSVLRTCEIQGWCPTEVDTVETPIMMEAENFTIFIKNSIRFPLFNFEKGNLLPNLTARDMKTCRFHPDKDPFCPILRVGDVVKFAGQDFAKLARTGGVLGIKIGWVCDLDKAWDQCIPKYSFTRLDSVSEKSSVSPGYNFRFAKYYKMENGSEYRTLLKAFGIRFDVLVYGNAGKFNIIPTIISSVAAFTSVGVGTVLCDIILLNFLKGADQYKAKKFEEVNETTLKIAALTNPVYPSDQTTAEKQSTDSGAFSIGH

| Compound | IC50 [nM] |
| --- | --- |
| CC(C)Oc1ccc(/N=c2\[nH]c(=O)n(CCS(=O)(=O)O)c(=O)n2Cc2ccc(Cl)cc2)cc1F [Compound I-0654] | 26 |
| CCCn1c(=O)[nH]/c(=N\c2ccc(Oc3ccnc(C(=O)O)c3)cc2)n(Cc2ccc(Cl)cc2)c1=O [Compound I-2162] | 6 |
| CCc1nc2ccc(/N=c3\[nH]c(=O)n(C[C@H](C)C(=O)OC)c(=O)n3Cc3ccc(Cl)cc3)cc2o1 [Compound I-1326] | 217 |
| C[C@@H](Oc1ccc(/N=c2\[nH]c(=O)n(CC(=O)NCC(F)(F)F)c(=O)n2Cc2ccc(Cl)cc2)cc1)C(F)(F)F [Compound I-1961] | 13 |
| COC(=O)[C@@H](C)Cn1c(=O)[nH]/c(=N\c2ccc3nc(C)c(C)nc3c2)n(Cc2ccc(Cl)cc2)c1=O [Compound I-1320] | 365 |
| COC(=O)[C@@H](C)Cn1c(=O)[nH]/c(=N\c2ccc(OCC(F)F)c(C)c2)n(Cc2ccc(Cl)cc2)c1=O [Compound I-0738] | 19 |
| CCn1c(=O)[nH]/c(=N\c2ccc(Oc3cnc(C(=O)OC)cn3)cc2)n(Cc2ccc(Cl)cc2)c1=O [Compound I-2212] | 2 |
| Cc1cc(/N=c2\[nH]c(=O)n(Cc3cccc(C(=O)O)n3)c(=O)n2Cc2ccc(Cl)cc2)ccc1OC(C)C [Compound I-0801] | 10 |
| COC(=O)[C@@H](C)Cn1c(=O)[nH]/c(=N\c2ccc(OC3CCC3)cc2)n(Cc2ccc(C)cc2)c1=O [Compound I-1217] | 5 |
| Cc1ccc(Cn2c(=O)n(C[C@H](C)C(=O)O)c(=O)[nH]/c2=N\c2ccc(C(=O)C3CC3)cc2)cc1 [Compound I-1305] | 227 |
| CNC(=O)CCn1c(=O)[nH]/c(=N\c2ccc(O[C@H](C)C(F)(F)F)cc2)n(Cc2ccc(Cl)cc2)c1=O [Compound I-1957] | 22 |
| CCOC(=O)c1cc2cc(/N=c3\[nH]c(=O)n(C[C@H](C)C(=O)OC)c(=O)n3Cc3ccc(Cl)cc3)ccc2o1 [Compound I-1938] | 312 |
| COC(=O)[C@@H](C)Cn1c(=O)[nH]/c(=N\c2ccc(CC(C)C)c(Cl)c2)n(Cc2ccc(Cl)cc2)c1=O [Compound I-1370] | 19 |
| COC(=O)[C@@H](C)Cn1c(=O)[nH]/c(=N\c2cccc(C(C)C)c2)n(Cc2ccc(Cl)cc2)c1=O [Compound I-0777] | 116 |
| CCn1c(=O)[nH]/c(=N\c2ccc(Oc3ccccc3C(N)=O)cc2)n(Cc2ccc(Cl)cc2)c1=O [Compound I-2009] | 472 |
| CCn1c(=O)[nH]/c(=N\c2ccc(Oc3cncc(OC)n3)cc2)n(Cc2ccc(Cl)cc2)c1=O [Compound I-2125] | 7 |
| CCOC(=O)c1coc(Oc2ccc(/N=c3\[nH]c(=O)n(CC)c(=O)n3Cc3ccc(Cl)cc3)cc2)n1 [Compound I-2188] | 9 |
| CC(C)Oc1ccc(/N=c2\[nH]c(=O)n(CCCNC(=N)N)c(=O)n2Cc2ccc(Cl)cc2)cc1F [Compound I-0634] | 11 |
| COC(=O)[C@@H](C)Cn1c(=O)[nH]/c(=N\c2ccc(OC(C)C)c(F)c2)n(Cc2ccc(F)cc2)c1=O [Compound I-0617] | 67 |
| CCn1c(=O)[nH]/c(=N\c2ccc(Oc3cccc(C(=O)OC)n3)cc2)n(Cc2ccc(C)cc2)c1=O [Compound I-2180] | 11 |
| CC(C)Oc1ccc(/N=c2\[nH]c(=O)n(CCC(=O)O)c(=O)n2CC2CCCCCCC2)cc1F [Compound I-1916] | 995 |
| Cc1nc2ccc(/N=c3\[nH]c(=O)n([C@H](C)[C@H](C)C(=O)O)c(=O)n3Cc3ccc(Cl)cc3)cc2s1 [Compound I-1467] | 12 |
| CCn1c(=O)[nH]/c(=N\c2ccc(Oc3cc(C(=O)OC)nc(Cl)n3)cc2)n(Cc2ccc(Cl)cc2)c1=O [Compound I-2210] | 14 |

Same assay, conditions: C6BU-1 cells stably expressing human P2X3 receptor, Fluo-3 fluorescence, FDSS 3000

| Compound | IC50 [nM] |
| --- | --- |
| COC(=O)CN1CCC(Cn2c(=O)[nH]/c(=N\c3ccc(OC(C)C)c(C)c3)n(Cc3ccc(Cl)cc3)c2=O)CC1 [Compound I-1638] | 13 |
| C[C@@H](C(=O)O)[C@H](C)n1c(=O)[nH]/c(=N\c2ccc3c(O)cccc3c2)n(Cc2ccc(Cl)cc2)c1=O [Compound I-1826] | 751 |
| COc1ccc2cc(/N=c3\[nH]c(=O)n([C@@H](C)[C@@H](C)C(=O)O)c(=O)n3Cc3ccc(Cl)cc3)ccc2c1 [Compound I-1773] | 29 |
| CCC[C@@H](C)Oc1ccc(/N=c2\[nH]c(=O)n(CCC(=O)OCC)c(=O)n2Cc2ccc(C)cc2)cc1 [Compound I-1053] | 79 |
| CCOC(=O)CCn1c(=O)[nH]/c(=N\c2ccc(O[C@H](C)CC)c(C)c2)n(Cc2ccc(C)cc2)c1=O [Compound I-1019] | 7 |
| CCn1c(=O)[nH]/c(=N\c2ccc(Oc3ccnc(O)c3)cc2)n(Cc2ccc(Cl)cc2)c1=O [Compound I-1621] | 4 |
| Cc1cc(/N=c2\[nH]c(=O)n(C3CN(CC(=O)O)C3)c(=O)n2Cc2ccc(Cl)cc2)ccc1OC(C)C [Compound I-1742] | 135 |
| CCOC(=O)CCn1c(=O)[nH]/c(=N\c2ccc(OCC3CC3)cc2)n(Cc2ccc(Cl)cc2)c1=O [Compound I-1147] | 10 |
| Cc1cc(Oc2ccc(/N=c3\[nH]c(=O)n(CCO)c(=O)n3Cc3ccc(Cl)cc3)cc2)no1 [Compound I-1756] | 30 |
| CCc1nc2ccc(/N=c3\[nH]c(=O)n(CC(C)(C)C(=O)O)c(=O)n3Cc3ccc(C)cc3)cc2s1 [Compound I-1580] | 6 |
| CC(C)Oc1ccc(/N=c2\[nH]c(=O)n(CC3(C(=O)O)COC3)c(=O)n2Cc2ccc(Cl)cc2)cc1Cl [Compound I-1011] | 21 |
| CCc1oc2ccc(/N=c3\[nH]c(=O)n(CCNC(C)=O)c(=O)n3Cc3ccc(Cl)cc3)cc2c1C [Compound I-1566] | 8 |
| CC(C)Oc1ccc(Nc2nc(=O)n(C(C)C)c(=O)n2Cc2ccc(F)cc2)cc1C#N [Compound I-0227] | 910 |
| COC(=O)[C@@H](C)Cn1c(=O)[nH]/c(=N\c2cccc(C3CCCC3)c2)n(Cc2ccc(C)cc2)c1=O [Compound I-1089] | 487 |
| Cc1ccc(Cn2c(=O)n(CCC(=O)O)c(=O)[nH]/c2=N\c2ccc(OC(C)C)c(Br)c2)cc1 [Compound I-1178] | 17 |
| COC(=O)CCCCn1c(=O)[nH]/c(=N\c2ccc(OC(C)C)c(Cl)c2)n(Cc2ccc(C)cc2)c1=O [Compound I-1873] | 2 |
| Cc1cc(/N=c2\[nH]c(=O)n(C[C@H](C)C(=O)O)c(=O)n2Cc2ccc(Cl)cc2)ccc1CCC1CC1 [Compound I-1024] | 161 |
| CSc1cccc(/N=c2\[nH]c(=O)n(C[C@H](C)C(=O)O)c(=O)n2Cc2ccc(Cl)cc2)c1 [Compound I-1152] | 110 |
| CCC[C@H](C)Oc1ccc(/N=c2\[nH]c(=O)n(C[C@H](C)C(=O)O)c(=O)n2Cc2ccc(C)cc2)cc1 [Compound I-1060] | 29 |

Same assay, conditions: human P2X3 receptor, Test Example 1

| Compound | IC50 [nM] |
| --- | --- |
| CCOC(=O)Cn1c(=O)[nH]/c(=N\c2ccc(Oc3ncc(C)s3)cc2)n(Cc2ccc(Cl)cc2)c1=O [Compound I-2619] | 6 |
| CC[C@@H](Cn1c(=O)[nH]/c(=N\c2ccc(OC(C)C)c(C)c2)n(Cc2ccc(Cl)cc2)c1=O)C(=O)O [Compound I-0889] | 53 |
| COC(=O)[C@@H](C)Cn1c(=O)[nH]/c(=N\c2ccc(CC(C)(C)O)c(Cl)c2)n(Cc2ccc(C)cc2)c1=O [Compound I-1527] | 5 |
| Cc1ccc(Cn2c(=O)n(C)c(=O)[nH]/c2=N\c2ccc(Oc3ccc(C(N)=O)cn3)cc2)cc1 [Compound I-2464] | 10 |
| O=c1[nH]/c(=N\c2ccc(Oc3cccnn3)cc2)n(Cc2ccc(Cl)cc2)c(=O)n1CC(CO)CO [Compound I-2692] | 8 |
| Cn1c(=O)[nH]/c(=N\c2ccc(Oc3cccc(C#N)n3)cc2)n(Cc2ccc(Cl)cc2)c1=O [Compound I-2374] | 8 |
| CCn1c(=O)[nH]/c(=N\c2ccc(Oc3cccc(CO)n3)cc2)n(Cc2ccc(Cl)cc2)c1=O [Compound I-2639] | 26 |
| CC(CO)(CO)Cn1c(=O)[nH]/c(=N\c2ccc(OCC3CC3)cc2)n(Cc2ccc(F)cc2)c1=O [Compound I-2617] | 42 |
| O=C(O)Cn1c(=O)[nH]/c(=N\c2ccc(Oc3cccnn3)cc2)n(Cc2ccc(Cl)cc2)c1=O [Compound I-2663] | 330 |
| COC(=O)CCn1c(=O)[nH]/c(=N\c2ccc(Oc3cccc(C(N)=O)n3)cc2)n(Cc2ccc(Cl)cc2)c1=O [Compound I-2684] | 2 |
| O=c1[nH]/c(=N\c2ccc(Oc3nccs3)cc2)n(Cc2ccc(F)cc2)c(=O)n1CCCO [Compound I-2507] | 35 |
| CCn1c(=O)[nH]/c(=N\c2ccc(Oc3cccc(C#N)n3)c(F)c2)n(Cc2ccc(Cl)cc2)c1=O [Compound I-2492] | 4 |
| Cc1ccc(Cn2c(=O)n(C)c(=O)[nH]/c2=N\c2ccc(Oc3cnc(C(=O)O)cn3)cc2)cc1 [Compound I-2385] | 13 |
| CCOC(=O)CCn1c(=O)[nH]/c(=N\c2ccc(OC(C)C)c(Cl)c2)n(Cc2ccc(C)cc2)c1=O [Compound I-0866, 6-(3-chloro-4-isopropoxyphenylamino)-3-(2,3-ethoxycarbonylethyl)-1-(4-methylbenzyl)-1,3,5-triazinane-2,4-dion] | 2 |
| CCn1c(=O)[nH]/c(=N\c2ccc(Oc3ncc(C(N)=O)s3)cc2)n(Cc2ccc(Cl)cc2)c1=O [Compound I-2609] | 2 |
| CCn1c(=O)[nH]/c(=N\c2ccc(Oc3ccnc(C#N)n3)cc2)n(Cc2ccc(Cl)cc2)c1=O [Compound I-2310] | 5 |
| O=c1[nH]/c(=N\c2ccc(Oc3cnccn3)cc2)n(Cc2ccc(Cl)cc2)c(=O)n1CC(CO)CO [Compound I-2710] | 6 |
| CNC(=O)CCn1c(=O)[nH]/c(=N\c2ccc3nc(C)sc3c2)n(Cc2ccc(Cl)cc2)c1=O [Compound I-1543] | 6 |
| CNC(=O)CCn1c(=O)[nH]/c(=N\c2ccc(Oc3cccc(F)n3)cc2)n(Cc2ccc(Cl)cc2)c1=O [Compound I-2655] | 5 |
| COC(=O)[C@H](C)Cn1c(=O)[nH]/c(=N\c2ccc(N3CCCCC3)cc2)n(Cc2ccc(Cl)cc2)c1=O [Compound I-1484] | 6 |
| C[C@H](C(=O)O)n1c(=O)[nH]/c(=N\c2ccc(Oc3ccon3)cc2)n(Cc2ccc(Cl)cc2)c1=O [Compound I-2486] | 381 |
| CCn1c(=O)[nH]/c(=N\c2ccc(Oc3ccnc(C(=O)O)c3)cc2)n(Cc2ccc(F)cc2)c1=O [Compound I-2360] | 11 |

From patent US9718790B2, “Triazine derivative and pharmaceutical composition having an analgesic activity comprising the same” (SHIONOGI & CO., LTD., priority 2010, dated 2017)
